Laboratory results taken from US8633243B2, “Forms of CDDO methyl ester” (priority 2007, dated 2014).
Marks after values point to notes of the source that are not given here.

Tests used:
[1] = Phases 2 and 3: single oral administration of CDDO-methyl ester capsule formulations, concentrations by HPLC-MS/MS; assay type: in vivo, Cynomolgus monkeys, Macaca fascicularis; conditions: phases 2 and 3, PO capsule 10 mg/kg; compared with the micronized and nanocrystalline Form A formulations
Procedure: An aqueous suspension of nanocrystalline CDDO-Me was produced, starting from a sample of micronized Form A material. A Retsch® Planatory Ball Mill model PM 400, containing zirconia balls of 2 mm average size, was charged with 25 gm of micronized CDDO-Me (average particle size distribution of 6.1 uM), 5 gm of docusate sodium, 1 gm of Tween 80, and 68.3 gm of water. Grinding was initiated at approximately 400 RPM and was continued for 2 hours. A particle size distribution (PSD) determination using a laser light granulometer indicated an average PSD of 0.37 μM was obtained. To this thick suspension were added 1 gm of microcrystalline cellulose and 0.2 gm of […] gum, with brief mixing, and the suspension was stored refrigerated. […] The table below presents the quantitative composition of both formulations. […] The quantitative composition of each formulation appears below. […] Serial blood samples (approximately 1 mL) were removed from the femoral vein or artery of each animal and transferred into tubes containing K2-EDTA at each of the following time points (actual times were recorded): All samples were thoroughly mixed following collection and placed on wet ice, prior to being refrigerated at approximately 4° C. CDDO-methyl ester concentrations in blood were analysed by HPLC-MS/MS.

[2] = Stress experiments (physical stability under temperature, humidity, grinding; XRPD after stress); assay type: physicochemical; conditions: for KF Result after stress: Karl Fischer water; for weight loss under stress: 3 days
Procedure: A solid sample was placed into a stainless steel milling rotor with a small metal ball. […] The sample was then ground at 30 Hz on a Retesh type MM220 mixermill for approximately 20 minutes. The resulting solids were isolated and analyzed.
A solid sample was placed into a stainless steel grinding jar with a grinding rod. The sample was then ground at 15 Hz on a SPEX Certiprep model 6750 cryomill for a set amount of time. The grinding jar was submerged in a bath of liquid nitrogen during the experiment. The solids were isolated and analyzed.
Solids were stressed under different temperature and/or relative humidity (RH) environments for a measured time period. Specific RH values were achieved by placing the samples inside sealed chambers containing saturated salt solutions or inside ESPEC temperature and humidity cabinets. The salt solutions were selected and prepared following an ASTM standard procedure. Samples were analyzed by XRPD immediately after removal from the stress environment. […]

[3] = Hygroscopicity (dynamic vapor sorption/desorption); assay type: physicochemical
Procedure: Moisture sorption/desorption data were collected on a VTI SGA-100 Vapor Sorption Analyzer. Sorption and desorption data were collected over a range of 5% to 95% relative humidity (RH) at 10% RH intervals under a nitrogen purge. Samples were not dried prior to analysis. Equilibrium criteria used for analysis were less than 0.010% weight change in 5 minutes, with a maximum equilibration time of 3 hours if the weight criterion was not met. Data were not corrected for the initial moisture content of the samples. Sodium chloride and polyvinypyrrolidine were used as calibration standards.

[4] = cynomolgus monkey, in vivo, po, 4.1 mg/kg
[5] = 25° C./75% RH, 28 d, micronized
[6] = 40° C./48% RH, 28 d, micronized
[7] = 60° C./23% RH, 28 d, micronized

Row | hygroscopicity [3] | AUC, Mean [4] | AUC, Median [4] | AUC, Range (min-max) [4] | Compound | XRPD RESULT after stress [2, 5] | KF Result after stress [2, 5] | XRPD RESULT after stress [2, 6] | KF Result after stress [2, 6] | XRPD RESULT after stress [2, 7] | KF Result after stress [2, 7] | XRPD RESULT after stress ([2]; 80° C./P2O5, 28 d, micronized) | KF Result after stress ([2]; 80° C./P2O5, 28 d, micronized) | other results
1 | not hygroscopic | 177.2 ng·h/mL | 175.0 ng·h/mL | 158 to 228 ng·h/mL | COC(=O)C12CCC(C)(C)CC1C1C(=O)C=C3C4(C)C=C(C#N)C(=O)C(C)(C)C4CCC3(C)C1(C)CC2 (stereo not shown) [Form B, methyl 2-cyano-3,12-dioxoleana-1,9(11)-dien-28-oate] | – | – | – | – | – | – | – | – | bioavailability, comparison of formulations [1]: significantly better bioavailability; XRPD RESULT after stress ([2]; 22° C./97% RH, 7 days): remained Form B; XRPD RESULT after stress ([2]; 40° C./75% RH, 8 days): remained Form B; XRPD RESULT after stress ([2]; 80° C./0% RH, ~24 hours): remained Form B; XRPD RESULT after stress ([2]; 195° C., 5 minutes, ambient RH (74% RH)): remained Form B; XRPD RESULT after stress ([2]; 200° C., 60 minutes, ambient RH (74% RH), min = minor): Form A plus minor Form B; form after cryogrinding ([2]; cryogrinding 1 hour): stable and does not change Form; % Form B over Form A (AUC), Mean [4]: 439%; % Form B over Form A (AUC), Median [4]: 523%; % Form B over Form A (AUC), Range (min-max) [4]: 262-723%; median exposure greater than the equivalent dose of Form A [4]: approximately 520%
2 | – | – | – | – | COC(=O)[C@]12CCC(C)(C)C[C@H]1[C@H]1C(=O)C=C3[C@@]4(C)C=C(C#N)C(=O)C(C)(C)[C@@H]4CC[C@@]3(C)[C@]1(C)CC2 [FORM B PRODUCED VIA EXAMPLE 11 PROCEDURE] | Form B | 0.77% | Form B | 0.00^b | Form B | 0.04% | Form B | 1.1% | XRPD RESULT after stress ([2]; 25° C./75% RH, 14 d, micronized): Form B; XRPD RESULT after stress ([2]; 80° C./P2O5, 14 d, micronized): Form B
3 | – | – | – | – | COC(=O)[C@]12CCC(C)(C)C[C@H]1[C@H]1C(=O)C=C3[C@@]4(C)C=C(C#N)C(=O)C(C)(C)[C@@H]4CC[C@@]3(C)[C@]1(C)CC2 [FORM B PRODUCED BY ISOLATION FROM ETHYL ACETATE AND ETHANOL ] | Form B | 0.58% | Form B | 0.39% | ~50% Form A + | 0.02% | 100% Form A | 0.37% | form after stress testing (summary of Table 15) ([2]; 28 days of storage, Form A seen at 60° C. and above): formation of Form A
4 | not hygroscopic | 40.4 ng·h/mL | 37.4 ng·h/mL | 21 to 60.4 ng·h/mL | COC(=O)C12CCC(C)(C)CC1C1C(=O)C=C3C4(C)C=C(C#N)C(=O)C(C)(C)C4CCC3(C)C1(C)CC2 (stereo not shown) [Form A, methyl 2-cyano-3,12-dioxoleana-1,9(11)-dien-28-oate] | – | – | – | – | – | – | – | – | weight loss under stress ([2]; 25° C./60% RH): 3 days: 1.5% loss; XRPD RESULT after stress ([2]; 25° C./60% RH, 7 days): remained Form A; weight loss under stress ([2]; 40° C./75% RH): 3 days: 1.4% loss; XRPD RESULT after stress ([2]; 40° C./75% RH, 7 days): remained Form A; XRPD RESULT after stress ([2]; 20 min grind, dry (ball mill)): remained Form A; XRPD RESULT after stress ([2]; 20 min wet grind, water (ball mill)): remained Form A; MB / DVS weight change ([3]; 5% to 95% RH sorption/desorption): Negligible weight change throughout experiment; Post MB XRPD ([3]; material after DVS experiment): Form A
